Source: patent publication US20250041459A1, “Polyethylene Glycol Modified Zwitterionic Fluorescent Probe and Application Thereof, and Preparation” (Beijing Sonophotonano Medical Technology Company Limited, priority 2022, published 2025)

Legend:
PSMA = target: T1, PSMA (Homo sapiens, UniProt Q04609); assay: PSMA-targeted prostate cancer fluorescence imaging; conditions: in vivo
T1 construct: highly expressed PSMA in prostate cancer; endogenous in cells
From the text: (§1) The inventors conducted the above test to the fluorescent probes prepared in examples 2-5.

[1] = test system: MB-49 human bladder cancer lung metastasis; conditions: 2 nmol intravenous, 4 h
From the text: (§2) This test example studied the imaging manifestations of PEG-Cy7-RP-RGD in different tumor models. A U87 human glioma mouse in-situ model, an SKOV3 human ovarian cancer in-situ model, a 4T1 mouse breast cancer lung metastasis model and an MB-49 human bladder cancer lung metastasis model were respectively set up.
(§3) A 4T1 mouse breast cancer lung metastasis model and an MB-49 mouse bladder cancer lung metastasis model were respectively set up in FIG. 11.

[2] = test system: 4T1 mouse breast cancer lung metastasis; conditions: 2 nmol intravenous, 4 h
From the text: as §2, §3

U87 human glioma = conditions: 2 nmol intravenous, 4 h
From the text: as §2

[3] = Absorption and fluorescence spectra of probes (optical properties); type: physicochemical; conditions: for Fluorescence quantum yield: ICG in DMSO as standard
[4] = test system: SKOV3 human ovarian cancer; conditions: 2 nmol intravenous, 4 h
From the text: as §2
A […] human ovarian cancer mouse in-situ tumor model was set up in FIG. 10.

[5] = test system: MB-49 human bladder cancer cells; assay: Fluorescence imaging in mouse subcutaneous tumor model of MB-49 bladder cancer cells; type: in vivo, Balb/c nude mouse
Method: A mouse subcutaneous tumor model of human bladder cancer cells was set up by injecting MB-49 human bladder cancer cells in Balb/c nude mouse legs. After the tumor grew to a proper size, four fluorescent probes were respectively intravenously injected (2 nmol of probe was injected for each mouse), and then fluorescence imaging was performed on mice at different time points after injection.

tumors = assay: The above tests repeated on probes of examples 2-5 (targeted fluorescence imaging of tumors); conditions: in vivo
From the text: as §1

T1 sequence (Q04609 whole entry, species assumed): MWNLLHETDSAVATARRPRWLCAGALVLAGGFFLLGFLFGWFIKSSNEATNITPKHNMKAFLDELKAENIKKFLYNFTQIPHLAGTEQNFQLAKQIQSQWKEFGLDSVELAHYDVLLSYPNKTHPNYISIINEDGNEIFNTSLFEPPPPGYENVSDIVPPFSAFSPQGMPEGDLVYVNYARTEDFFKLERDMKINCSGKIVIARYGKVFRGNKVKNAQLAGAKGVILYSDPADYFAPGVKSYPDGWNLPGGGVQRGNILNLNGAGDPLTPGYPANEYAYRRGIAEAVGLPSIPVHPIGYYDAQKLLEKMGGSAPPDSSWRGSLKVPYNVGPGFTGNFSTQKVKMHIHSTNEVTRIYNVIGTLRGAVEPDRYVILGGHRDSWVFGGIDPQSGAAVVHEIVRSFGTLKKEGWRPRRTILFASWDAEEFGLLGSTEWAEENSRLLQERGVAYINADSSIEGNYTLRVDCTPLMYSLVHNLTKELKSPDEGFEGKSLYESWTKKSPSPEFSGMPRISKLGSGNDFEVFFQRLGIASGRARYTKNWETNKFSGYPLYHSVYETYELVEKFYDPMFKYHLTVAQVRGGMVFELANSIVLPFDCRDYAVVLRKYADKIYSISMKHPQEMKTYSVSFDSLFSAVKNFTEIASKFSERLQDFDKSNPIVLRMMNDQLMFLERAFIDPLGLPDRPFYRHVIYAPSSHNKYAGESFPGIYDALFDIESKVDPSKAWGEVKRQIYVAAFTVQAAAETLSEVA

COCCOCCOCCN1/C(=C/C=C2\CCCC(/C=C/C3=[N+](CCOCCOCCOC)c4ccc(S(=O)(=O)O)cc4C3(C)C)=C2Oc2ccc(CCC(=O)N[C@@H](CCCNC(=N)N)C(=O)NCCOCCOCCOCCOCCC(=O)NCCCC[C@H](NC(=O)NC(CCC(=O)O)C(=O)O)C(=O)O)cc2)C(C)(C)c2cc(S(=O)(=O)[O-])ccc21 (stereo partly drawn) [example 5]
Binding to PSMA in prostate cancer (PSMA): can bind to highly expressed PSMA in prostate cancer | Prostate cancer-specific fluorescence imaging (PSMA): achieving prostate cancer-specific fluorescence imaging

COCCOCCOCCN1/C(=C/C=C2\CCCC(/C=C/C3=[N+](CCOCCOCCOC)c4ccc(S(=O)(=O)O)cc4C3(C)C)=C2Oc2ccc(CCC(=O)N[C@@H](CCCNC(=N)N)C(=O)NCCOCCOCCOCCOCCC(=O)NCCCCC3NC(=O)[C@@H](Cc4ccc(O)cc4)NC(=O)[C@H](CC(=O)O)NC(=O)CNC(=O)[C@H](CCCNC(=N)N)NC3=O)cc2)C(C)(C)c2cc(S(=O)(=O)[O-])ccc21 (stereo partly drawn) [PEG-Cy7-RP-RGD]
Fluorescence signal at tumor site [1]: strong fluorescence signal | Signal-to-noise ratio of small lung metastasis lesion [1]: about 4 | Fluorescence signal at tumor site [2]: strong fluorescence signal | Signal-to-noise ratio of small lung metastasis lesion [2]: about 4 | Fluorescence signal at tumor site (U87 human glioma): strong fluorescence signal | Signal-to-noise ratio at tumor site (U87 human glioma; head skin cut): up to 6.3 | Absorption peak ([3]; 100% Fetal bovine serum): 777 nm | Emission peak ([3]; 100% Fetal bovine serum): 795 nm | Luminance (molar extinction coefficient × fluorescence quantum yield) ([3]; 100% Fetal bovine serum): 20700 | Molar extinction coefficient ([3]; 100% Fetal bovine serum): 184000 M⁻¹ cm⁻¹ | Stokes shift ([3]; 100% Fetal bovine serum): 18 nm | Fluorescence quantum yield ([3]; 100% Fetal bovine serum): 11.2% | Change of fluorescence property in 100% fetal bovine serum versus PBS ([3]; 100% fetal bovine serum vs PBS): did not obviously change | Absorption peak ([3]; PBS buffer (pH = 7.4)): 776 nm | Emission peak ([3]; PBS buffer (pH = 7.4)): 794 nm | Luminance (molar extinction coefficient × fluorescence quantum yield) ([3]; PBS buffer (pH = 7.4)): 19300 | Molar extinction coefficient ([3]; PBS buffer (pH = 7.4)): 174000 M⁻¹ cm⁻¹ | Stokes shift ([3]; PBS buffer (pH = 7.4)): 18 nm | Fluorescence quantum yield ([3]; PBS buffer (pH = 7.4)): 11.1% | Fluorescence signal at tumor site [4]: strong fluorescence signal | Signal-to-noise ratio at ovarian tumor site [4]: about 4.0 | TBR (tumor signal-to-noise ratio) relative to the other three probes ([5]; 24 h after intravenous injection, 2 nmol per mouse): twice or more | Tissue background (non-specific) signal in normal tissue ([5]; in vivo imaging): ultra-low | Tumor signal-to-noise ratio (TBR), compared with the other probes ([5]; intravenous, 2 nmol per mouse): obviously improved

COCCOCCOCCN1/C(=C/C=C2\CCCC(/C=C/C3=[N+](CCOCCOCCOC)c4ccc(S(=O)(=O)O)cc4C3(C)C)=C2Oc2ccc(CCC(=O)O)cc2)C(C)(C)c2cc(S(=O)(=O)[O-])ccc21 [PEG-Cy7-COOH]
Fluorescent brightness compared with PEG-Cy7-Cl ([3]; PBS): doubled | Increase of fluorescence quantum yield compared with PEG-Cy7-Cl ([3]; PBS): 3.7% | Absorption peak ([3]; PBS buffer (pH = 7.4)): 772 nm | Emission peak ([3]; PBS buffer (pH = 7.4)): 794 nm | Luminance (molar extinction coefficient × fluorescence quantum yield) ([3]; PBS buffer (pH = 7.4)): 19800 | Molar extinction coefficient ([3]; PBS buffer (pH = 7.4)): 228000 M⁻¹ cm⁻¹ | Stokes shift ([3]; PBS buffer (pH = 7.4)): 22 nm | Fluorescence quantum yield ([3]; PBS buffer (pH = 7.4)): 8.7%

COCCOCCOCCN1/C(=C/C=C2\CCCC(/C=C/c3[se]c4cc(S(=O)(=O)O)ccc4[n+]3CCOCCOCCOC)=C2c2ccc(CCC(=O)N[C@@H](CCNC(=N)N)C(=O)NCCOCCOCCOCCOCCC(=O)NCCCCC3NC(=O)[C@@H](Cc4ccc(O)cc4)NC(=O)[C@H](CC(=O)O)NC(=O)CNC(=O)[C@H](CCCNC(=N)N)NC3=O)cc2)[Se]c2cc(S(=O)(=O)O)ccc21 (stereo partly drawn) [example 3]
Fluorescence property compared to example 1 [3]: comparable to that in example 1 | Usability for targeted fluorescence imaging of tumors (tumors): can be used for targeted fluorescence imaging of tumors
